US10457677B2 (priority 2015, dated 2019)

Biological target: purified human recombinant ATM (ataxia telangiectasia mutated), full length (Homo sapiens (Human), UniProt Q13315)
Experiment: ATM kinase assay - determination of ATM inhibition (IC50 ATM), TR-FRET
Type: biochemical
Details: 10 μM ATP, substrate p53
Description: ATM kinase assay—determination of ATM inhibition (IC50 ATM):
The IC50 value was determined with the aid of a biochemical ATM kinase assay. The assay consists of two steps: the enzymatic reaction and the detection step. Firstly, ATM (ataxia telangiectasia mutated) protein and the test substance are incubated at different concentrations with addition of substrate protein p53 and ATP. ATM mediates the phosphorylation of p53 at several positions, including at amino acid S15. The amount of phosphorylated p53 is determined with the aid of specific antibodies and the TR-FRET technique. The enzymatic ATM assay is carried out as TR-FRET (HTRF™, Cisbio Bioassays) based 384-well assay. In the first step, purified human recombinant ATM (human ATM, full length, GenBank ID NM_000051, expressed in a mammal cell line) is incubated in assay buffer for 15 minutes with the ATM inhibitor in various concentrations and without test substance as negative or neutral control. The assay buffer comprises 25 mM HEPES pH 8.0, 10 mM Mg(CH3COO)2, 1 mM MnCl2, 0,1% BSA and 0,01% Brij® 35, 5 mM dithiothreitol (DTT). […] In the second step, purified human recombinant cmyc-labelled p53 (human p53, full length, GenBank ID BC003596, expressed in Sf21 insect cells) and ATP are added, and the reaction mixture is incubated at 22° C. for 30-35 minutes. The pharmacologically relevant assay volume is 5 μl. […] The enzymatic reaction is stopped by addition of EDTA. […] After incubation, usually for 2 hours (between 1.5 and 15h), for signal development, the plates are analysed in a plate reader (EnVision, PerkinElmer) using TRF mode (and with laser excitation). […] The measurement data were processed by means of Genedata Screener software.

Chain of purified human recombinant ATM (ataxia telangiectasia mutated), full length (Q13315 whole entry, change not shown): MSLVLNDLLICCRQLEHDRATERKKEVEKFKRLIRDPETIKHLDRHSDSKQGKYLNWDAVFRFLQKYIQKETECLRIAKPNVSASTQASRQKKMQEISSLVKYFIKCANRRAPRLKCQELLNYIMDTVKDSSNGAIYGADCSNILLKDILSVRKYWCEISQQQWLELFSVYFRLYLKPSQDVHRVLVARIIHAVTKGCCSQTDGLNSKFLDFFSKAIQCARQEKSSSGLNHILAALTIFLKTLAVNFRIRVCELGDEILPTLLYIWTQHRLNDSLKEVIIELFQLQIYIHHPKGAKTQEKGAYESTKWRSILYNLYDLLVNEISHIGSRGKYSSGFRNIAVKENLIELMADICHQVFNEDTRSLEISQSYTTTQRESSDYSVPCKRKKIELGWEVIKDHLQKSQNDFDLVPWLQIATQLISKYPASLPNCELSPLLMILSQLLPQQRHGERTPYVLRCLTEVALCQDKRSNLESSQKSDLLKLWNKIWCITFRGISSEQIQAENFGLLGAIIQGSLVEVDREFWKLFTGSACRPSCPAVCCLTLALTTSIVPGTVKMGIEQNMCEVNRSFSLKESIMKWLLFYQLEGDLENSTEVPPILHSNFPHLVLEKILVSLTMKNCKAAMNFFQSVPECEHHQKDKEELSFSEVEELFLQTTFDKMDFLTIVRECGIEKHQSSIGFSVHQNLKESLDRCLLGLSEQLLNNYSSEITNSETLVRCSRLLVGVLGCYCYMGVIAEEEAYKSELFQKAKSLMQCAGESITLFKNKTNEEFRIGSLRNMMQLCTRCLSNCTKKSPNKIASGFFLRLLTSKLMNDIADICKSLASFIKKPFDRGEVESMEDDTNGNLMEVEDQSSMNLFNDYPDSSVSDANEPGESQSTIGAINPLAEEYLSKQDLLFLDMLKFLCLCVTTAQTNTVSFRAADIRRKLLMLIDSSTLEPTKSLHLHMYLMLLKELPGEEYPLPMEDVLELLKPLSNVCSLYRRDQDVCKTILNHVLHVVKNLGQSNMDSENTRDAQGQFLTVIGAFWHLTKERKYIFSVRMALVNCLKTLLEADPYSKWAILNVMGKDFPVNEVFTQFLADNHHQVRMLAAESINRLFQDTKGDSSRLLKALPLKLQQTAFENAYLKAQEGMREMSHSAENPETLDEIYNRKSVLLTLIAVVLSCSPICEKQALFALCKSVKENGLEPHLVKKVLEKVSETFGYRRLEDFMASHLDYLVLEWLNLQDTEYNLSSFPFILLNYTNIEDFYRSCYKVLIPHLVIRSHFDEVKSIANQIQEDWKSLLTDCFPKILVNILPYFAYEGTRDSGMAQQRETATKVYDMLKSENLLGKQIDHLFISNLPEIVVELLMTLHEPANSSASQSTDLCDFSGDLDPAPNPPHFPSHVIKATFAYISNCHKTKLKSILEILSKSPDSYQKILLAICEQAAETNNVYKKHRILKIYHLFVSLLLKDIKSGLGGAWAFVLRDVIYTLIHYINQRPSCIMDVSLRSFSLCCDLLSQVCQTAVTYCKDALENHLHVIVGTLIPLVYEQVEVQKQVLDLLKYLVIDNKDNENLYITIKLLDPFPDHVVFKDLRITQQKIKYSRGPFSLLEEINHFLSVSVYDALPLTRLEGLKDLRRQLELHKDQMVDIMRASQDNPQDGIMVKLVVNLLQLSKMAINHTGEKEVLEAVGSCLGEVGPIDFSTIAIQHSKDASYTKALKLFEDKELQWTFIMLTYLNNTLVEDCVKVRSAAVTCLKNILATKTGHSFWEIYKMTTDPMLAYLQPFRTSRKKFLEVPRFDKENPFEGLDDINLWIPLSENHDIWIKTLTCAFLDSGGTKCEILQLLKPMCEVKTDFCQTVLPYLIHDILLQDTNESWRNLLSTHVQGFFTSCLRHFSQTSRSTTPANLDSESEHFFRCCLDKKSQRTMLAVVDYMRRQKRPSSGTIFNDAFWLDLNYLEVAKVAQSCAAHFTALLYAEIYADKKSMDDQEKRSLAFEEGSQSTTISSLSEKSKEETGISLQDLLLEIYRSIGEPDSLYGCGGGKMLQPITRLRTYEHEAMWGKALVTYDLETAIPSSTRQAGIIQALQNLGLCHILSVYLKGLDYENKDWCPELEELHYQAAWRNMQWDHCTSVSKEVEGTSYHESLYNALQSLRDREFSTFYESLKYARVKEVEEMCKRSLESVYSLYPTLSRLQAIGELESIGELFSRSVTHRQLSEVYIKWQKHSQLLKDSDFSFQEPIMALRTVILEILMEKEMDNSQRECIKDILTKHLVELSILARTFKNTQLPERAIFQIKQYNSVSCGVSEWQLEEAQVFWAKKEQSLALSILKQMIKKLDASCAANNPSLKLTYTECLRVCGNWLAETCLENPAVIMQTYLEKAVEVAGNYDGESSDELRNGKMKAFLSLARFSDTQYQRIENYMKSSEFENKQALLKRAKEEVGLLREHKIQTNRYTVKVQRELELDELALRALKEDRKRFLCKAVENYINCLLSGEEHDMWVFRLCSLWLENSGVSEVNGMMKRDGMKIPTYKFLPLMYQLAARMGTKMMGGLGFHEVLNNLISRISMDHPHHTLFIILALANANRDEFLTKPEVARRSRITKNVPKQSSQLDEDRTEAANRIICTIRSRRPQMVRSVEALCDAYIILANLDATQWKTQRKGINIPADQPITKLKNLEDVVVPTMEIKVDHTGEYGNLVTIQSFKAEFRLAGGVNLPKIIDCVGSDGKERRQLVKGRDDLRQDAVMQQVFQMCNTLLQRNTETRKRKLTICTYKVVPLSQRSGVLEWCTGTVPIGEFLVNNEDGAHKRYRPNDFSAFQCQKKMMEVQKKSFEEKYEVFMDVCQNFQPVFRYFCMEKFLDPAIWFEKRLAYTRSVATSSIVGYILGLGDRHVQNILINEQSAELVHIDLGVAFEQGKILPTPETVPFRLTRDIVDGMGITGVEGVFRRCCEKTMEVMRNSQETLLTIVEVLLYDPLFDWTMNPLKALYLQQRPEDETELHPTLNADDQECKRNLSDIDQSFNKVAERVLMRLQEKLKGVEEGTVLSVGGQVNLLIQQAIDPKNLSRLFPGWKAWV

Compound | IC50
COc1cc2ncc3c(c2cc1-c1cnn(C)n1)n(-c1c(F)cncc1OC)c(=O)n3C [compound 127, 1-(3-Fluoro-5-methoxy-pyridin-4-yl)-7-methoxy-3-methyl-8-(2-methyl-2H-1,2,3-triazol-4-yl)-1,3-dihydroimidazo[4,5-c] quinolin-2-one] | < 10 nM
COc1cnc(-n2c(=O)n(C)c3cnc4cc(OC)c(-c5cnn[nH]5)cc4c32)c(F)c1 [compound 128, 1-(3-Fluoro-5-methoxy-pyridin-2-yl)-7-methoxy-3-methyl-8-(3H-1,2,3-triazol-4-yl)-1,3-dihydroimidazo-[4,5-c] quinolin-2-one] | < 10 nM
COc1cc2ncc3[nH]c(=O)n(-c4c(F)cncc4OC)c3c2cc1-c1cn(C)nc1C [compound 129, 8-(1,3-Dimethyl-1H-pyrazol-4-yl)-1-(3-fluoro-5-methoxy-pyridin-4-yl)-7-methoxy-1,3-dihydroimidazo[4,5-c]-quinolin-2-one] | < 1 nM
CCn1cc(-n2c(=O)n(C)c3cnc4cc(OC)c(-c5cnn(C)c5)cc4c32)c(C)n1 [compound 130, 1-(1-Ethyl-3-methyl-1H-pyrazol-4-yl)-7-methoxy-3-methyl-8-(1-methyl-1H-pyrazol-4-yl)-1,3-dihydro-imidazo[4,5-c]quinolin-2-one] | < 1 nM
COc1cc2ncc3c(c2cc1-c1cn(C)nn1)n(-c1c(F)cncc1OC)c(=O)n3C [compound 131, 1-(3-Fluoro-5-methoxy-pyridin-4-yl)-7-methoxy-3-methyl-8-(1-methyl-1H-1,2,3-triazol-4-yl)-1,3-dihydroimidazo[4,5-c]-quinolin-2-one] | < 10 nM
COc1cc2ncc3c(c2cc1-c1ccc2nc(C)[nH]c2c1)n(-c1cn(C)nc1C)c(=O)n3C [compound 132, 1-(1,3-Dimethyl-1H-pyrazol-4-yl)-7-methoxy-3-methyl-8-(2-methyl-3H-benzo-imidazol-5-yl)-1,3-dihydro-imidazo[4,5-c]quinolin-2-one] | < 1 nM
COc1cnc(-n2c(=O)n(C)c3cnc4cc(OC)c(-c5cn(C)nn5)cc4c32)c(F)c1 [compound 133, 1-(3-Fluoro-5-methoxy-pyridin-2-yl)-7-methoxy-3-methyl-8-(1-methyl-1H-1,2,3-triazol-4-yl)-1,3-dihydroimidazo[4,5-c] quinolin-2-one] | < 10 nM
COc1cc2ncc3c(c2cc1-c1cnn[nH]1)n(-c1c(F)cncc1OC)c(=O)n3C [compound 134, 1-(3-Fluoro-5-methoxy-pyridin-4-yl)-7-methoxy-3-methyl-8-(3H-1,2,3-triazol-4-yl)-1,3-dihydroimidazo-[4,5-c] quinolin-2-one] | < 1 nM
CCn1cc(-n2c(=O)n(C)c3cnc4cc(OC)c(-c5cn(C)nc5C)cc4c32)c(C)n1 [compound 135, 8-(1,3-Dimethyl-1H-pyrazol-4-yl)-1-(1-ethyl-3-methyl-1H-pyrazol-4-yl)-7-methoxy-3-methyl-1,3-dihydro-imidazo[4,5-c]quinolin-2-one] | < 1 nM
COc1ccc(-c2cc3c(cc2OC)ncc2c3n(-c3c(F)cncc3OC)c(=O)n2C)cn1 [compound 137, 1-(3-Fluoro-5-methoxy-pyridin-4-yl)-7-methoxy-8-(6-methoxypyridin-3-yl)-3-methyl-1,3-dihydroimidazo-[4,5-c]quinolin-2-one] | < 10 nM
CNC(=O)c1cnc(-n2c(=O)n(C)c3cnc4cc(OC)c(-c5cn(C)nc5C)cc4c32)c(F)c1 [compound 139, 6-[8-(1,3-Dimethyl-1H-pyrazol-4-yl)-7-methoxy-3-methyl-2-oxo-2,3-dihydro-imidazo[4,5-c]quinolin-1-yl]-5-fluoro-N-methyl-nicotinamid] | < 1 nM
CCn1cc(-c2cc3c(cc2OC)ncc2c3n(-c3c(F)cncc3OC)c(=O)n2C)c(C)n1 [compound 142, 8-(1-Ethyl-3-methyl-1H-pyrazol-4-yl)-1-(3-fluoro-5-methoxypyridin-4-yl)-7-methoxy-3-methyl-1,3-dihydroimidazo[4,5-c] quinolin-2-one] | < 1 nM
COc1cc2ncc3c(c2cc1-c1cnn(C(F)F)c1)n(-c1c(F)cncc1OC)c(=O)n3C [compound 143, 8-(1-Difluoromethyl-1H-pyrazol-4-yl)-1-(3-fluoro-5-methoxypyridin-4-yl)-7-methoxy-3-methyl-1,3-dihydroimidazo[4,5-c] quinolin-2-one] | < 1 nM
COc1cnc(-n2c(=O)n(C)c3cnc4cc(OC)c(-c5ccc6nc(C)[nH]c6c5)cc4c32)c(F)c1 [compound 144, 1-(3-Fluoro-5-methoxy-pyridin-2-yl)-7-methoxy-3-methyl-8-(2-methyl-3H-benzoimidazol-5-yl)-1,3-dihydroimidazo[4,5-c]-quinolin-2-one] | < 1 nM
COc1cc2ncc3c(c2cc1-c1cnn(C)c1)n(-c1c(F)cncc1OC(F)F)c(=O)n3C [compound 146, 1-(3-Difluoromethoxy-5-fluoropyridin-4-yl)-7-methoxy-3-methyl-8-(1-methyl-1H-pyrazol-4-yl)-1,3-dihydroimidazo[4,5-c]-quinolin-2-one] | < 1 nM
COc1cc2ncc3c(c2cc1-c1cnn(C)c1)n(-c1c(F)cncc1OCF)c(=O)n3C [compound 148] | < 1 nM
COc1cc2ncc3c(c2cc1-c1n[nH]cc1C)n(-c1cn(C)nc1C)c(=O)n3C [compound 151, 1-(1,3-Dimethyl-1H-pyrazol-4-yl)-7-methoxy-3-methyl-8-(4-methyl-1H-pyrazol-3-yl)-1,3-dihydroimidazo[4,5-c] quinolin-2-one] | < 50 nM
COc1cc2ncc3c(c2cc1-c1cnc2nc(C)[nH]c2c1)n(-c1c(F)cncc1OC)c(=O)n3C [compound 152, 1-(3-Fluoro-5-methoxy-pyridin-4-yl)-7-methoxy-3-methyl-8-(2-methyl-1H-imidazo[4,5-b]pyridin-6-yl)-1,3-dihydroimidazo[4,5-c]-quinolin-2-one] | < 1 nM
COc1cnc(-n2c(=O)n(C)c3cnc4cc(OC)c(-c5ccc6nc[nH]c6c5)cc4c32)c(F)c1 [compound 153, 8-(3H-Benzimidazol-5-yl)-1-(3-fluoro-5-methoxypyridin-2-yl)-7-methoxy-3-methyl-1,3-dihydroimidazo[4,5-c]-quinolin-2-one] | < 10 nM
COc1cc2ncc3c(c2cc1-c1cnc2nc(C)[nH]c2c1)n(-c1cn(C)nc1C)c(=O)n3C [compound 154, 1-(1,3-Dimethyl-1H-pyrazol-4-yl)-7-methoxy-3-methyl-8-(2-methyl-1H-imidazo[4,5-b]pyridin-6-yl)-1,3-dihydro-imidazo[4,5-c]quinolin-2-one] | < 1 nM
CCc1cnccc1-n1c(=O)n(C)c2cnc3cc(OC)c(-c4cnn(C)c4)cc3c21 [compound 156, 1-(3-Ethylpyridin-4-yl)-7-methoxy-3-methyl-8-(1-methyl-1H-pyrazol-4-yl)-1,3-dihydroimidazo[4,5-c] quinolin-2-one] | < 1 nM
COc1cc2ncc3c(c2cc1-c1cnn(C)n1)n(-c1ncccc1F)c(=O)n3C [compound 158, 1-(3-Fluoropyridin-2-yl)-7-methoxy-3-methyl-8-(2-methyl-2H-1,2,3-triazol-4-yl)-1,3-dihydroimidazo-[4,5-c] quinolin-2-one] | < 500 nM
COc1cc2ncc3c(c2cc1-c1cnn(C)c1)n(-c1ccncc1C1CC1)c(=O)n3C [compound 200, 1-(3-Cyclopropylpyridin-4-yl)-7-methoxy-3-methyl-8-(1-methyl-1H-pyrazol-4-yl)-1,3-dihydroimidazo[4,5-c] quinolin-2-one] | < 50 nM
COc1cc2ncc3c(c2cc1-c1cnn(C)c1)n(-c1c(F)cncc1C1CC1)c(=O)n3C [compound 202, 1-(3-Cyclopropyl-5-fluoro-pyridin-4-yl)-7-methoxy-3-methyl-8-(1-methyl-1H-pyrazol-4-yl)-1,3-dihydro-imidazo[4,5-c]quinolin-2-one] | < 1 nM
COc1cc2ncc3c(c2cc1-c1cn(C)nc1C)n(-c1ncc(OCS(C)(=O)=O)cc1F)c(=O)n3C [compound 203, 8-(1,3-Dimethyl-1H-pyrazol-4-yl)-1-(3-fluoro-5-methyl-sulfonylmethoxypyridin-2-yl)-7-methoxy-3-methyl-1,3-dihydroimidazo[4,5-c]-quinolin-2-one] | < 1 nM
C=CCOc1cnc(-n2c(=O)n(C)c3cnc4cc(OC)c(-c5cnn(C)c5)cc4c32)c(F)c1 [compound 204, 1-(5-Allyloxy-3-fluoropyridin-2-yl)-7-methoxy-3-methyl-8-(1-methyl-1H-pyrazol-4-yl)-1,3-dihydroimidazo[4,5-c]-quinolin-2-one] | < 1 nM
CNCCOc1cnc(-n2c(=O)n(C)c3cnc4cc(OC)c(-c5cnn(C)c5)cc4c32)c(F)c1 [compound 206] | < 10 nM
COc1cc2ncc3c(c2cc1-c1cnn(C)c1)n(-c1ncc(OCC2CN(C)C2)cc1F)c(=O)n3C [compound 207, 1-[3-Fluoro-5-(1-methyl-azetidin-3-ylmethoxy)-pyridin-2-yl]-7-methoxy-3-methyl-8-(1-methyl-1H-pyrazol-4-yl)-1,3-dihydro-imidazo[4,5-c]quinolin-2-one] | < 10 nM
